Measurements reported in patent US10131652B2, “Pyrimidinyloxy benzene derivatives as herbicides” (E. I. DU PONT DE NEMOURS AND COMPANY, priority 2014, dated 2018).

Key:
Experiment in all cases: Test D pre-/postemergence plant response
Type in all cases: in vivo
[1] = test system: Italian ryegrass (Lolium multiflorum)
How it was run: (§1)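 Seeds were planted in a loam and sand blend and sprayed preemergence. In parallel, seedlings grown in peat moss/vermiculite medium were sprayed postemergence at 2 to 18 cm height. Both used a surfactant-containing non-phytotoxic solvent. Greenhouse ratings at 13 to 15 days used a 0–100 control scale.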

[2] = test system: barnyardgrass (Echinochloa crus-galli)
How it was run: as §1

[3] = test system: blackgrass (Alopecurus myosuroides)
How it was run: as §1

corn (Zea mays) = test system: corn (Zea mays)
How it was run: as §1

[4] = test system: galium (catchweed bedstraw, Galium aparine)
How it was run: as §1

[5] = test system: giant foxtail (Setaria faberii)
How it was run: as §1

[6] = test system: johnsongrass (Sorghum halepense)
How it was run: as §1

[7] = test system: lambsquarters (Chenopodium album)
How it was run: as §1

[8] = test system: large (Lg) crabgrass (Digitaria sanguinalis)
How it was run: as §1

[9] = test system: morningglory (Ipomoea coccinea)
How it was run: as §1

[10] = test system: oilseed rape (Brassica napus)
How it was run: as §1

[11] = test system: pigweed (Amaranthus retroflexus)
How it was run: as §1

[12] = test system: ragweed (common ragweed, Ambrosia elatior)
How it was run: as §1

soybean (Glycine max) = test system: soybean (Glycine max)
How it was run: as §1

[13] = test system: velvetleaf (Abutilon theophrasti)
How it was run: as §1

[14] = test system: waterhemp (common waterhemp, Amaranthus rudis)
How it was run: as §1

[15] = test system: winter wheat (Triticum aestivum)
How it was run: as §1

[16] = test system: yellow nutsedge (Cyperus esculentus)
How it was run: as §1

[17] = Postemergence, 31 g ai/ha, scale 0 to 100 (0 no effect, 100 complete control)
[18] = Postemergence, 62 g ai/ha, scale 0 to 100, 0 no effect, 100 complete control
[19] = Postemergence, 125 g ai/ha, scale 0 to 100, 0 no effect, 100 complete control
[20] = Preemergence, 8 g ai/ha, scale 0 to 100 (0 no effect, 100 complete control)
[21] = Preemergence, 16 g ai/ha, scale 0 to 100 (0 no effect, 100 complete control)
[22] = Preemergence, 31 g ai/ha, scale 0 to 100 (0 no effect, 100 complete control)
[23] = Preemergence, 62 g ai/ha, scale 0 to 100 (0 no effect, 100 complete control)
[24] = Postemergence, 16 g ai/ha, scale 0 to 100 (0 no effect, 100 complete control)

FC(F)(Cl)c1cc(-c2ccccc2Oc2ncc(Cl)cn2)no1 [Compound 143]
Ryegrass, Italian plant response rating [1, 17]: 0 | Plant response rating, Ryegrass, Italian [1, 18]: 0 | Plant response rating, Ryegrass, Italian [1, 19]: 15 | Plant response rating, Ryegrass, Italian [1, 20]: 0 | Plant response rating, Ryegrass, Italian [1, 21]: 5 | Plant response rating, Ryegrass, Italian [1, 22]: 5 | Plant response rating, Ryegrass, Italian [1, 23]: 70 | Barnyardgrass plant response rating [2, 24]: 5 | Barnyardgrass plant response rating [2, 17]: 5 | Plant response rating, Barnyardgrass [2, 18]: 10 | Plant response rating, Barnyardgrass [2, 19]: 65 | Plant response rating, Barnyardgrass [2, 20]: 5 | Plant response rating, Barnyardgrass [2, 21]: 20 | Plant response rating, Barnyardgrass [2, 22]: 70 | Plant response rating, Barnyardgrass [2, 23]: 98 | Blackgrass plant response rating [3, 24]: 10 | Blackgrass plant response rating [3, 17]: 10 | Plant response rating, Blackgrass [3, 18]: 20 | Plant response rating, Blackgrass [3, 19]: 30 | Plant response rating, Blackgrass [3, 20]: 0 | Plant response rating, Blackgrass [3, 21]: 10 | Plant response rating, Blackgrass [3, 22]: 15 | Plant response rating, Blackgrass [3, 23]: 90 | Corn plant response rating (corn (Zea mays); [24]): 5 | Corn plant response rating (corn (Zea mays); [17]): 5 | Plant response rating, Corn (corn (Zea mays); [18]): 5 | Plant response rating, Corn (corn (Zea mays); [19]): 10 | Plant response rating, Corn (corn (Zea mays); [20]): 0 | Plant response rating, Corn (corn (Zea mays); [21]): 0 | Plant response rating, Corn (corn (Zea mays); [22]): 5 | Plant response rating, Corn (corn (Zea mays); [23]): 100 | Galium plant response rating [4, 17]: 70 | Plant response rating, Galium [4, 18]: 70 | Plant response rating, Galium [4, 19]: 100 | Plant response rating, Galium [4, 20]: 10 | Plant response rating, Galium [4, 21]: 10 | Plant response rating, Galium [4, 22]: 80 | Plant response rating, Galium [4, 23]: 80 | Foxtail, Giant plant response rating [5, 24]: 5 | Foxtail, Giant plant response rating [5, 17]: 10 | Plant response rating, Foxtail, Giant [5, 18]: 10 | Plant response rating, Foxtail, Giant [5, 19]: 50 | Plant response rating, Foxtail, Giant [5, 20]: 40 | Plant response rating, Foxtail, Giant [5, 21]: 85 | Plant response rating, Foxtail, Giant [5, 22]: 100 | Plant response rating, Foxtail, Giant [5, 23]: 100 | Johnsongrass plant response rating [6, 17]: 5 | Plant response rating, Johnsongrass [6, 18]: 30 | Plant response rating, Johnsongrass [6, 19]: 30 | Plant response rating, Johnsongrass [6, 20]: 35 | Plant response rating, Johnsongrass [6, 21]: 15 | Plant response rating, Johnsongrass [6, 22]: 60 | Plant response rating, Johnsongrass [6, 23]: 80 | Lambsquarters plant response rating [7, 17]: 80 | Plant response rating, Lambsquarters [7, 18]: 98 | Plant response rating, Lambsquarters [7, 19]: 100 | Plant response rating, Lambsquarters [7, 20]: 25 | Plant response rating, Lambsquarters [7, 21]: 70 | Plant response rating, Lambsquarters [7, 22]: 85 | Plant response rating, Lambsquarters [7, 23]: 85 | Crabgrass, Large plant response rating [8, 24]: 10 | Crabgrass, Large plant response rating [8, 17]: 10 | Plant response rating, Crabgrass, Large [8, 18]: 15 | Plant response rating, Crabgrass, Large [8, 19]: 35 | Plant response rating, Crabgrass, Large [8, 20]: 60 | Plant response rating, Crabgrass, Large [8, 21]: 98 | Plant response rating, Crabgrass, Large [8, 22]: 100 | Plant response rating, Crabgrass, Large [8, 23]: 100 | Plant response rating, Morningglory [9, 18]: 90 | Plant response rating, Morningglory [9, 19]: 100 | Plant response rating, Morningglory [9, 20]: 0 | Plant response rating, Morningglory [9, 21]: 10 | Plant response rating, Morningglory [9, 22]: 35 | Plant response rating, Morningglory [9, 23]: 55 | Oilseed Rape plant response rating [10, 17]: 50 | Plant response rating, Oilseed Rape [10, 18]: 60 | Plant response rating, Oilseed Rape [10, 19]: 65 | Plant response rating, Oilseed Rape [10, 20]: 0 | Plant response rating, Oilseed Rape [10, 21]: 0 | Plant response rating, Oilseed Rape [10, 22]: 85 | Plant response rating, Oilseed Rape [10, 23]: 95 | Pigweed plant response rating [11, 17]: 90 | Plant response rating, Pigweed [11, 18]: 100 | Plant response rating, Pigweed [11, 19]: 100 | Plant response rating, Pigweed [11, 20]: 90 | Plant response rating, Pigweed [11, 21]: 100 | Plant response rating, Pigweed [11, 22]: 100 | Plant response rating, Pigweed [11, 23]: 100 | Ragweed plant response rating [12, 17]: 5 | Plant response rating, Ragweed [12, 18]: 10 | Plant response rating, Ragweed [12, 19]: 30 | Plant response rating, Ragweed [12, 20]: 0 | Plant response rating, Ragweed [12, 21]: 0 | Plant response rating, Ragweed [12, 22]: 30 | Plant response rating, Ragweed [12, 23]: 40 | Soybean plant response rating (soybean (Glycine max); [17]): 30 | Plant response rating, Soybean (soybean (Glycine max); [18]): 60 | Plant response rating, Soybean (soybean (Glycine max); [19]): 60 | Plant response rating, Soybean (soybean (Glycine max); [20]): 0 | Plant response rating, Soybean (soybean (Glycine max); [21]): 5 | Plant response rating, Soybean (soybean (Glycine max); [22]): 10 | Plant response rating, Soybean (soybean (Glycine max); [23]): 25 | Velvetleaf plant response rating [13, 17]: 30 | Plant response rating, Velvetleaf [13, 18]: 50 | Plant response rating, Velvetleaf [13, 19]: 65 | Plant response rating, Velvetleaf [13, 20]: 35 | Plant response rating, Velvetleaf [13, 21]: 30 | Plant response rating, Velvetleaf [13, 22]: 75 | Plant response rating, Velvetleaf [13, 23]: 85 | Waterhemp plant response rating [14, 17]: 100 | Plant response rating, Waterhemp [14, 18]: 100 | Plant response rating, Waterhemp [14, 19]: 100 | Plant response rating, Waterhemp [14, 20]: 95 | Plant response rating, Waterhemp [14, 21]: 100 | Plant response rating, Waterhemp [14, 22]: 98 | Plant response rating, Waterhemp [14, 23]: 100 | Wheat plant response rating [15, 17]: 5 | Plant response rating, Wheat [15, 18]: 5 | Plant response rating, Wheat [15, 19]: 5 | Plant response rating, Wheat [15, 20]: 0 | Plant response rating, Wheat [15, 21]: 0 | Plant response rating, Wheat [15, 22]: 0 | Plant response rating, Wheat [15, 23]: 0 | Nutsedge, Yellow plant response rating [16, 17]: 5 | Plant response rating, Nutsedge, Yellow [16, 18]: 5 | Plant response rating, Nutsedge, Yellow [16, 19]: 5 | Plant response rating, Nutsedge, Yellow [16, 20]: 0 | Plant response rating, Nutsedge, Yellow [16, 21]: 0 | Plant response rating, Nutsedge, Yellow [16, 22]: 0 | Plant response rating, Nutsedge, Yellow [16, 23]: 5
